Measurements published in PMC9007951, “Systematically evaluating DOTATATE and FDG as PET immuno-imaging tracers of cardiovascular inflammation” (Scientific Reports, 2022).

Assays:
[1] = mice; cited from earlier work
Text: This feature is important when performing in vivo imaging and especially in the vasculature, whose signal can be easily contaminated by the blood pool because of partial volume errors. […] We further used the combination of in ...

[2] = Blood half-life of [^64Cu]Cu-DOTATATE, gamma counting of blood, two-phase decay fit; assay type: in vivo, mice; conditions: for %fast: two-phase decay fit of blood radioactivity over 120 min; for %slow / Weighed t1/2 (weighted blood half-life) / t1/2 fast / t1/2 slow: two-phase decay fit
Experimental: (§1) Wild-type and atherosclerotic animals were injected with approximately 1.85 MBq of [^64Cu]Cu-DOTATATE and euthanized at either 1, 5, 15, 30, 60 or 120 min after injection (Supplementary Fig. S1A) to evaluate the tracer’s biodistribution. After euthanasia, an insulin syringe was used to collect blood samples from the right ventricle. Blood samples were used for the establishment of pharmacokinetics profile. Mice were then perfused with 20 mL of phosphate-buffered saline (PBS) and tissues of interest (heart, aorta, bone marrow, spleen, liver, stomach, bladder, kidneys, intestines, lungs, adrenal gland, muscles and pancreas) were harvested. Tissues were blotted for gamma counting on a Wizard2 2480 automatic gamma counter (Perkin Elmer, Waltham, MA). Values were corrected for decay and normalized to tissue weight to express radioactivity concentration as percentage injected dose per gram (%ID/g). […] To investigate the tracer’s distribution within different blood compartments, after gamma counting, 100 μL of blood were spun down at 2000 g for 15 min at 4 °C. Plasma (supernatant) and cells (pellet) were gamma counted and expressed as percentage of total activity. The remainder of the blood was separated using Lymphoprep density gradient medium (Nycomed Pharma, Zurich, Switzerland) following manufacturer’s instructions. Percentage of activity in mononuclear and polynuclear cells was calculated.

[3] = [^64Cu]Cu-DOTATATE distribution in blood fractions (plasma vs cells); assay type: in vivo, mice; conditions: 120 min after radiotracer injection, mean ± SEM, N = 5
Experimental: as §1, with “The remainder of the blood was separated using Lymphoprep density gradient medium (Nycomed Pharma, Zurich, Switzerland) following manufacturer’s instructions.” left out

[4] = Ex vivo gamma counting of whole aorta after PET/CT; assay type: in vivo, mice; conditions: female, mouse, iv, 5.55 MBq, total radioactivity, median, N = 4
Experimental: as §1, with “S1A)” for “Wild-type and atherosclerotic animals were injected with approximately 1.85 MBq of [^64Cu]Cu-DOTATATE and euthanized at either 1, 5, 15, 30, 60 or 120 min after injection (Supplementary Fig. S1A)”, “calculated. […]” for “calculated.”

[5] = Blood half-life of [^68Ga]Ga-DOTATATE, gamma counting of venous blood, two-phase decay fit; assay type: in vivo, New Zealand White rabbits
Experimental: (§2) Adopting a translational approach, the rabbit studies were performed with the [^68Ga]Ga-labeled tracer, which is already being used in the clinic. [^68Ga]Ga-DOTATATE was purchased from Advanced Accelerator Applications (AAA, Millburn, NJ, USA). To determine its pharmacokinetics, three atherosclerotic rabbits and two healthy controls were injected with approximately 190 MBq of [^68Ga]Ga-DOTATATE. Venous blood was sampled at 1, 5, 10, 15, 20, 30, 60, 120, 180, 240 and 300 min after injection through the ear vein. Samples were weighed and gamma counted. Blood half-life data were fitted using a two-phase decay non-linear regression using GraphPad Prism v8.4.3 (Supplementary Table S1). To investigate the tracer blood distribution, blood samples were centrifuged at 2000 g for 15 min at 4 °C to determine the radioactivity concentration in the plasma and cellular fractions. To analyze [^68Ga]Ga-DOTATATE biodistribution, all rabbits were euthanized after the last imaging time-point using an injection of pentobarbital 100 mg/kg and exsanguination of the portal vein. Rabbits were extensively perfused with 1000 mL of saline. Following, tissues (blood, heart, aorta, liver, kidney, skeletal muscle, small and large intestine, fat, stomach, pancreas and bladder) were harvested, weighed and gamma counted.

[6] = [^68Ga]Ga-DOTATATE distribution in blood fractions (plasma vs cells); assay type: in vivo, New Zealand White rabbits; conditions: control (N = 2) and athero4mo (N = 3) rabbits
Experimental: as §2

For `OC[C@H]1OC(O)[C@H]([18F])[C@@H](O)[C@@H]1O` (some centres unmarked) [[^18F]F-FDG, [^18F]F-fluorodeoxyglucose], the blood half-life [1] is given as 5.1 min.
In the case of `C[C@@H](O)[C@H](NC(=O)[C@@H]1CSSC[C@H](NC(=O)[C@@H](Cc2ccccc2)NC(=O)CN2CCN(CC(=O)O)CCN(CC(=O)O)CCN(CC(=O)O)CC2)C(=O)N[C@@H](Cc2ccc(O)cc2)C(=O)N[C@H](Cc2c[nH]c3ccccc23)C(=O)N[C@@H](CCCCN)C(=O)N[C@@H]([C@@H](C)O)C(=O)N1)C(=O)O` [[^64Cu]Cu-DOTATATE, metal not drawn], the “%fast” value ([2]; Apoe^-/- mice, N = 6) was 11.27%, the “%slow” value ([2]; Apoe^-/- mice, N = 6) was 88.73% and the “Weighed t1/2 (weighted blood half-life)” value ([2]; Apoe^-/- mice, N = 6) was 6.83 min. For the same compound, the t1/2 fast ([2]; Apoe^-/- mice, N = 6) was 0.557 min, the t1/2 slow ([2]; Apoe^-/- mice, N = 6) was 7.627 min and the “%fast” value ([2]; C57Bl/6 mice, N = 7) was 79.14%. The “%slow” value ([2]; C57Bl/6 mice, N = 7) was 20.86%, the “Weighed t1/2 (weighted blood half-life)” value ([2]; C57Bl/6 mice, N = 7) was 4.83 min and the t1/2 fast ([2]; C57Bl/6 mice, N = 7) was 1.939 min. The t1/2 slow ([2]; C57Bl/6 mice, N = 7) was 15.81 min, the “blood radioactivity contained in plasma” value ([3]; atherosclerotic Apoe^−/− mice) was 88.7 ± 0.9% and the “blood radioactivity contained in plasma” value ([3]; control C57Bl/6 mice) was 83.4 ± 0.6%. It also gave a tissue uptake ([4]; atherosclerotic Apoe^−/− mice after PET/CT) of 7.4 %ID/g and a tissue uptake ([4]; control C57Bl/6 mice after PET/CT) of 3.5 %ID/g.
With `C[C@@H](O)[C@H](NC(=O)[C@@H]1CSSC[C@H](NC(=O)[C@@H](Cc2ccccc2)NC(=O)CN2CCN(CC(=O)O)CCN(CC(=O)O)CCN(CC(=O)O)CC2)C(=O)N[C@@H](Cc2ccc(O)cc2)C(=O)N[C@H](Cc2c[nH]c3ccccc23)C(=O)N[C@@H](CCCCN)C(=O)N[C@@H]([C@@H](C)O)C(=O)N1)C(=O)O` [[^68Ga]Ga-DOTATATE, metal not drawn] the “%fast” value ([5]; athero4mo rabbits, N = 3) was 53.17%, the “%slow” value ([5]; athero4mo rabbits, N = 3) was 46.83% and the “Weighed t1/2 (weighted half-life)” value ([5]; athero4mo rabbits, N = 3) was 53.66 min. The t1/2 fast ([5]; athero4mo rabbits, N = 3) was 19.17 min, the t1/2 slow ([5]; athero4mo rabbits, N = 3) was 92.82 min and the “%fast” value ([5]; control rabbits, N = 2) was 39.7%. The “%slow” value ([5]; control rabbits, N = 2) was 60.3%, the “Weighed t1/2 (weighted half-life)” value ([5]; control rabbits, N = 2) was 21.17 min and the t1/2 fast ([5]; control rabbits, N = 2) was 3.419 min. The t1/2 slow ([5]; control rabbits, N = 2) was 32.86 min and the “distribution between plasma and cells” value [6] was “detected in plasma, rather than cells”.
